Measured values reported in patent EP0184861A1, “Derivatives of the 3-mercapto-2-oxo-1-pyrrolidinacetic acid, process for their preparation and pharmaceutical compositions containing them” (PROTER S.p.A., priority 1984, dated 1986).

Assays:
4% mucin suspension = assay: mucolithic activity "in vitro" with a 4% mucin suspension (viscosity reduction); assay type: biochemical; details: molar concentration 0,012 M
Description: The 3-mercapto-2-oxo-1-pyrrolidinyl acetic acid (V) and its derivatives are endowed with interesting phamacological properties; particularly they are endowed with a relevant mucolithic, expectorant and anti-cough activity and moreover show a very low toxicity.

[1] = acute toxicity in the mouse; details: in vivo, male and female mouse
Description: (§1) Thanks to their pharmacological properties and to the absence of toxicity, the compounds of formula I and their possible pharmaceutically acceptable salts may be used as drugs in the treatment of diseases of the respiratory tract.

[2] = tested on: fluid of the respiratory tract; assay: expectorant activity: fluorescein elimination in the fluid of the respiratory tract; assay type: in vivo; details: in comparison to the controls; dose 1 mM/kg/os
[3] = acute toxicity in the rat; details: in vivo, male and female rat
Description: as §1

[4] = tested after a suitable hydrolysis of the thioester

| SMILES | viscosity reduction (4% mucin suspension; [4]) [%] | LD50 ([1]; ip) [mg/kg] | LD50 ([1]; oral route) [mg/kg] | increases of escretion of the colouring matter [2] [%] | LD50 ([3]; ip) [mg/kg] | LD50 ([3]; oral route) [mg/kg] | viscosity reduction (4% mucin suspension) [%] |
| --- | --- | --- | --- | --- | --- | --- | --- |
| O=C(O)CN1CCC(SC(=O)c2ccccc2)C1=O (stereo not drawn) [VII, 3-benzoylthio-2-oxo-l-pyrrolidinyl acetic acid] | 16.13 | – | – | – | – | – | – |
| O=C(O)CN1CCC(S)C1=O (stereo not drawn) [V, 3-mercapto-2-oxo-1-pyrrolidinyl acetic acid] | – | > 2000 | > 3000 | 52.92 | > 1500 | > 5000 | 20.95 |
| CC(=O)N[C@@H](CS)C(=O)O [N-acetyl-L-cysteine, reference compound] | – | – | – | 29.63 | – | – | 12.69 |
| O=C(O)CN1CCC(SC(=O)c2cccs2)C1=O (stereo not drawn) [VI, 3-(2-thenoylthio)-2-oxo-1-pyrrolidinyl acetic acid] | 18.22 | > 2000 | > 3000 | 54.26 | > 1500 | > 5000 | – |
